# What was measured:
# [1] = tested on: EMRSA strains; assay: MIC of vancomycin or flucloxacillin with and without Aurograb (Table 3a); assay type: cell-based, S. aureus; details: Staphylococcus aureus; all EMRSA strains; read-out: MIC of flucloxacillin
# Description: Strains of MRSA were grown overnight in nutrient broth and diluted to give an inoculum of 1×10^3 cells per mL. […] Cultures were incubated for a further 2 days. The minimum growth-inhibitory concentration (MIC) is defined as the […] concentration of antibiotic at which no bacterial growth occurs and is determined by spectrophotometric evaluation of the lack of turbidity (growth) in culture. MICs were determined in the presence of exogenous Aurograb or in the presence of Aurograb formulation buffer (negative control).
# The experiments were also performed using flucloxacillin instead of vancomycin to investigate how the efficacy of penicillin-type […] was affected by Aurograb.
# [2] = tested on: human blood; assay: Blood compatibility study (haemolysis)
# Description: This study was carried out by Biochemical Pharmacology department at Inveresk Research, Scotland, in order to assess the suitability of Aurograb for intravenous administration.
# Blood samples were taken from healthy human volunteers, transferred to tubes containing Aurograb, Aurograb vehicle, saponin or saline and incubated at 37° C. for 1 hour. After centrifugation, the amount of haemoglobin in the supernatant was then assessed to determine haemolysis.
Compound,MIC [1] [mg/L],Haemolysis classification (ASTM F756-93) [2]
Cc1onc(-c2c(F)cccc2Cl)c1C(=O)N[C@@H]1C(=O)N2[C@@H]1SC(C)(C)[C@@H]2C(=O)O [flucloxacillin],> 256,–
saponin,–,severely haemolytic

# From patent US20070202116A1, “Treatment of micro-organism infection” (priority 2001, published 2007)
